MIC data for three compounds are collected here from patent US6716878B1, “Antimicrobial agents” (Vernalis (Oxford) Limited, priority 1999, dated 2004).

Broadly, the MIC is the lowest concentration that inhibits growth of the organism.

Converted amounts (≈) assume the structure as drawn.

One experiment deals with E. coli strain DH5α. Nature of the experiment: Minimal inhibitory concentration (MIC) against E. coli, two fold serial dilutions in 2xYT broth. Conditions: Escherichia coli; E. coli strain DH5α; 2xYT broth, 37° C., 18 hours; lowest drug concentration that inhibited visible growth; read-out: MIC (E. coli). The experiment is classed as cell-based. The method, then:
(§1) Where MIC values are quoted for the compounds of the examples, those results were obtained by the method described in the Biological Example.
(§2) Minimal inhibitory concentrations (MIC) of inhibitors against E. coli strain DH5α (Genotype; F-φ80d/acZΔM 15Δ(lacZYA-argF)U 169 deoR recA1 endA1 hsdR17(rk^−, mk^+)phoA supE44λ^−thi-1 gyrA96 re/A1) obtained from GibcoBRL Life Technologies, or Staphylococcus capitis (American Type Culture Collection number 35661) were determined as follows. Stock solutions of each test compound were prepared by dissolution of the compound in dimethylsulfoxide at 10 mM. For the determination of the minimal inhibitory concentration, two fold serial dilutions were prepared in 2×YT broth (typtone 16 g/l, yeast extract 10 g/l, sodium chloride 5 g/l obtained from BIO 101 Inc, 1070 Joshua Way, Vista, Calif. 92083, USA) to yield 0.05 ml compound-containing medium per well. Inocula were prepared from cultures grown overnight in 2×YT broth at 37° C. Cell densities were adjusted to absorbance at 660 nm (a660)=0.1; the optical density-standardised preparations were diluted 1:1000 in 2×YT broth; and each well inoculated with 0.05 ml of the diluted bacteria. Microtiter plates were incubated at 37° C. for 18 hours in a humidified incubator. The MIC (μM) was recorded as the lowest drug concentration that inhibited visible growth.

Experiment [1] deals with Staphylococcus capitis (American Type Culture Collection number 35661). The experiment is described as follows: Minimal inhibitory concentration (MIC) against Staphylococcus capitis, two fold serial dilutions in 2xYT broth. It is filed as cell-based. The settings on record: ATCC35661, Staphylococcus capitis ATCC 35661, 37° C., 18 hours, lowest drug concentration that inhibited visible growth, read-out: MIC (S. capitis). Here is the method: as §1, §2

Consider `CCCC[C@H](CN(O)C=O)C(=O)N[C@H](C(=O)c1ccc(N2CCNCC2)cc1)C(C)(C)C` [Example 26, 2(R)-[(N-Formyl-N-hydroxyamino)-methyl]-hexanoic Acid-(2′,2′-dimethyl-1′(S)-(4-piperazin-1-yl-benzoyl)-propyl)amide], for which the results for the MIC (in the experiment on E. coli strain DH5α; in experiment [1]) were 3.1 µM (≈ 1.38 µg/mL) and 12.5 µM (≈ 5.58 µg/mL), respectively.

Take `CC(C)(C)[C@H](NC(=O)[C@H](CC1CCCC1)CN(O)C=O)C(=O)c1ccc(F)cc1` [Example 4, 3-Cyclopentyl-2(R)-[(N-formyl-N-hydroxyamino)-methyl]-N-[1′(S)-(4-fluorobenzoyl)-2′,2′-dimethylpropyl]propionamide]: the MIC (in the experiment with E. coli strain DH5α; in experiment [1]) was 3.1 µM (≈ 1.26 µg/mL) in each case.

Consider `CCCC[C@H](CN(O)C=O)C(=O)N[C@H](C(=O)C1CCCCC1)C(C)C` [Example 3, 2(R)-[(N-Formyl-N-hydroxyamino)-methyl]-hexanoic Acid-(1′(S)-cyclohexanecarbonyl-2′-methylpropyl)amide], for which the MIC in the experiment with E. coli strain DH5α was determined as 50 µM (≈ 17.7 µg/mL); in experiment [1] it was 25 µM (≈ 8.86 µg/mL).
